Reference: publication PMC9127750, “Structure-based design of CDC42 effector interaction inhibitors for the treatment of cancer” (Cell reports, 2022)
Several values for one entry are separate records, joined by “and”; a condition that tells them apart may be missing. Identical values can stand only once.

Tested on: WM3248 melanoma cells, 486 antibodies
Experiment: Reverse phase protein arrays (RPPA);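 as to CA9.R.C RPPA level: ratio of treated to vehicle (0 µM) normalized linear protein signal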;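 as to CD171.M.V RPPA level: ratio of treated to vehicle (0 µM) normalized linear protein signal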
Type: cell-based, Human
Conditions: 10 uM
Text: Pellets were snap frozen in liquid nitrogen and shipped to MD Anderson Cancer Center core RPPA facility for RPPA analysis (Table S5). Three biological replicates for each sample were generated.
Nomenclatures on the RPPA heatmaps: name_of_antibody.species_of_antibody.status_of_antibody. V - antibody validated; C - validation of antibody in progress; Q - antibody nonspecific; E – under evaluation; antibodies raised in M - mouse, G - goat, R - rabbit, or T - rat.

SMILES: CN(C)c1cccc(Nc2cc(-c3ccccc3)nc(C3CCNCC3)n2)c1 [ARN22089, N1,N1-dimethyl-N3-(6-phenyl-2-(piperidin-4-yl)pyrimidin-4-yl)benzene-1,3-diamine]
- RPPA signal, antibody VEGFR.2_pY1175.R.C, Average (average of 3 replicates): 1.049
- RPPA signal, antibody VHL.EPPK1.M.C, Average (average of 3 replicates): 1.196
- RPPA signal, antibody VHL.R.C, Average (average of 3 replicates): 1.035
- RPPA signal, antibody Vinculin.M.V, Average (average of 3 replicates): 0.966
- RPPA signal, antibody WIPI1.R.C, Average (average of 3 replicates): 1.121
- RPPA signal, antibody WIPI2.R.C, Average (average of 3 replicates): 0.943
- RPPA signal, antibody WTAP.R.V, Average (average of 3 replicates): 1.119
- RPPA signal, antibody Wee1.R.C, Average (average of 3 replicates): 1.020
- RPPA signal, antibody Wee1_pS642.R.C, Average (average of 3 replicates): 0.998
- RPPA signal, antibody XBP.1.G.C, Average (average of 3 replicates): 1.065
- RPPA signal, antibody XIAP.R.C, Average (average of 3 replicates): 1.012
- RPPA signal, antibody XPA.M.V, Average (average of 3 replicates): 1.058
- RPPA signal, antibody XRCC1.R.C, Average (average of 3 replicates): 1.060
- RPPA signal, antibody YAP_pS127.R.V, Average (average of 3 replicates): 0.978
- RPPA signal, antibody YB1_pS102.R.V, Average (average of 3 replicates): 0.958
- RPPA signal, antibody YES1.R.V, Average (average of 3 replicates): 1.020
- RPPA signal, antibody YTHDF2.R.V, Average (average of 3 replicates): 0.990
- RPPA signal, antibody YTHDF3.R.C, Average (average of 3 replicates): 1.018
- RPPA signal, antibody ZAP.70.R.V, Average (average of 3 replicates): 1.001
- RPPA signal, antibody ZEB1.R.V, Average (average of 3 replicates): 1.024
- RPPA signal, antibody TSC1.R.C (individual replicates): 0.828 and 0.939
- RPPA signal, antibody TTF1.R.V (individual replicates): 0.920 and 0.873 and 1.035
- RPPA signal, antibody TUFM.R.V (individual replicates): 1.384 and 1.533
- RPPA signal, antibody Tuberin.R.V (individual replicates): 1.063 and 0.958 and 0.778
- RPPA signal, antibody Tuberin_pT1462.R.V (individual replicates): 1.389 and 0.896
- RPPA signal, antibody Twist.M.C (individual replicates): 1.022 and 1.114
- RPPA signal, antibody Tyro3.R.V (individual replicates): 1.207 and 1.432 and 1.052
- RPPA signal, antibody U.Histone.H2B.R.C (individual replicates): 0.675 and 0.846 and 0.974
- RPPA signal, antibody UBAC1.R.V (individual replicates): 0.909 and 0.974 and 0.962
- RPPA signal, antibody UBQLN4.M.C (individual replicates): 1.002 and 0.908 and 1.014
- RPPA signal, antibody UGT1A.M.V (individual replicates): 1.078 and 1.131 and 1.024
- RPPA signal, antibody ULK1_pS757.R.C (individual replicates): 0.907 and 0.952
- RPPA signal, antibody UQCRC2.M.C (individual replicates): 0.984 and 1.001 and 0.779
- RPPA signal, antibody UVRAG.R.C (individual replicates): 0.941 and 0.945 and 1.016
- RPPA signal, antibody VASP.R.V (individual replicates): 0.853 and 0.873 and 0.935
- RPPA signal, antibody VAV1.R.C (individual replicates): 0.917 and 0.930 and 0.971
- RPPA signal, antibody VEGFR.2.R.V (individual replicates): 0.830 and 0.863 and 1.064
- RPPA signal, antibody VEGFR.2_pY1175.R.C (individual replicates): 1.135 and 1.035 and 0.978
- RPPA signal, antibody VHL.EPPK1.M.C (individual replicates): 1.361 and 1.047
- RPPA signal, antibody VHL.R.C (individual replicates): 1.048 and 1.060 and 0.997
- RPPA signal, antibody Vinculin.M.V (individual replicates): 0.834 and 1.032 and 1.034
- RPPA signal, antibody WIPI1.R.C (individual replicates): 1.084 and 1.260 and 1.018
- RPPA signal, antibody WIPI2.R.C (individual replicates): 1.004 and 0.919 and 0.906
- RPPA signal, antibody WTAP.R.V (individual replicates): 0.973 and 1.303 and 1.081
- RPPA signal, antibody Wee1.R.C (individual replicates): 0.837 and 1.193 and 1.031
- RPPA signal, antibody Wee1_pS642.R.C (individual replicates): 0.842 and 1.057
- RPPA signal, antibody XBP.1.G.C (individual replicates): 1.054 and 1.065 and 1.076
- RPPA signal, antibody XIAP.R.C (individual replicates): 0.980 and 0.995 and 1.063
- RPPA signal, antibody XPA.M.V (individual replicates): 0.998 and 1.083
- RPPA signal, antibody XPF.R.C (individual replicates): 1.061 and 1.058 and 1.015
- RPPA signal, antibody XRCC1.R.C (individual replicates): 1.098 and 1.017
- RPPA signal, antibody YAP.R.C (individual replicates): 1.046 and 1.136 and 1.017
- RPPA signal, antibody YAP_pS127.R.V (individual replicates): 0.857 and 1.020 and 1.056
- RPPA signal, antibody YB1_pS102.R.V (individual replicates): 0.792 and 0.995
- RPPA signal, antibody YES1.R.V (individual replicates): 0.963 and 1.023
- RPPA signal, antibody YTHDF2.R.V (individual replicates): 0.973 and 0.926
- RPPA signal, antibody YTHDF3.R.C (individual replicates): 1.046 and 1.052 and 0.954
- RPPA signal, antibody ZAP.70.R.V (individual replicates): 0.965 and 0.999
- RPPA signal, antibody ZEB1.R.V (individual replicates): 0.993 and 0.988
- C.Raf.R.C RPPA level (replicates): 1.022 and 0.897 and 0.901
- C.Raf_pS338.R.V RPPA level (replicates): 0.937 and 0.962
- CA9.R.C RPPA level (replicates): 0.963 and 0.920 and 1.058
- CD2.M.C RPPA level (replicates): 1.046 and 1.013
- CD4.R.V RPPA level (replicates): 0.841 and 0.982 and 0.984
- CD5.M.C RPPA level (replicates): 1.032 and 1.016
- CD20.R.C RPPA level (replicates): 0.915 and 1.113 and 1.048
- CD26.R.V RPPA level (replicates): 0.862 and 0.937 and 1.046
- CD29.M.V RPPA level (replicates): 1.013 and 0.983 and 1.052
- CD31.M.V RPPA level (replicates): 1.033 and 1.057 and 1.013
- CD38.R.C RPPA level (replicates): 0.895 and 0.963
- CD44.R.C RPPA level (replicates): 1.029 and 1.050
- CD45.M.V RPPA level (replicates): 1.006 and 1.019
- CD49b.M.V RPPA level (replicates): 1.003 and 0.999
- CD68.M.C RPPA level (replicates): 1.022 and 1.011
- CD74.M.V RPPA level (replicates): 0.984 and 1.053
- CD134.R.V RPPA level (replicates): 1.005 and 1.057 and 0.995
- CD171.M.V RPPA level (replicates): 0.591 and 0.987 and 1.115
- CDK1_pT14.R.C RPPA level (replicates): 1.201 and 0.649 and 0.946
- CDK9.R.V RPPA level (replicates): 1.078 and 0.919
- CDKN2A.R.C RPPA level (replicates): 1.006 and 1.160
- CDT1.R.V RPPA level (replicates): 0.973 and 1.157 and 1.014
